The values below come from patent publication US20230295087A1, “AGONISTS OF ROR GAMMAt” (BRISTOL-MYERS SQUIBB COMPANY, priority 2019, published 2023).

The target of the test is T1, human RORgT (Homo sapiens, UniProt P51449).
T1 construct: expressed in transfected cells
T1 sequence (P51449 267-516): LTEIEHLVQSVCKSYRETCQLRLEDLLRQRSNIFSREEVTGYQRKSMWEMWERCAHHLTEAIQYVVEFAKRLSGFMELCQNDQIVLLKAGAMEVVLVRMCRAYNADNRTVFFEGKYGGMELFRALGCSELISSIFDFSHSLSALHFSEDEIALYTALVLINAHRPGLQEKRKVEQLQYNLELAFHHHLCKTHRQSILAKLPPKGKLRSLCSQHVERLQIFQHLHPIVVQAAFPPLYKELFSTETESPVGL
The test is described as follows: RORgT Gal4 Luciferase Reporter Gene Assay. Format: cell-based. As to conditions: engineered Jurkat cells overexpressing RORgT (LBD or full length) fused with Gal4 Luc reporter; 18 hours at 37° C.; luminescence. The gist of the method: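 Jurkat cells expressing Gal4 Luc with either RORgT LBD (aa267-516) or full-length human RORgT, 10,000 cells/well, treated with compound (40 µM to 0.67 nM final, 3-fold dilutions) for 18 h at 37° C. Steady-Glo luminescence read; inhibition of constitutive activity as % signal-window reduction relative to a control compound.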
Regarding `CC(=O)N1CCC(C(=O)N2CC[C@@]3(S(=O)(=O)c4ccccc4)c4ccc(OCc5c(F)cccc5Cl)cc4CC[C@@H]23)CC1` [Example 136, 1-{4-[(3aR,9bR)-9b-(benzenesulfonyl)-7-[(2-chloro-6-fluorophenyl)methoxy]-1H,2H,3H,3aH,4H,5H,9bH-benzo[e]indole-3-carbonyl]piperidin-1-yl}ethan-1-one], the EC50 – broadly, the concentration needed to bring the measured effect to its halfway point – is 16 nM.

The compound `CS(=O)(=O)N1CCC(C(=O)N2CC[C@@]3(S(=O)(=O)c4ccccc4)c4ccc(OCc5c(F)cccc5Cl)cc4CC[C@@H]23)CC1` [Example 137, 4-[(3aR,9bR)-9b-(benzenesulfonyl)-7-[(2-chloro-6-fluorophenyl)methoxy]-1H,2H,3H,3aH,4H,5H,9bH-benzo[e]indole-3-carbonyl]-1-methanesulfonylpiperidine] had a concentration for a half-maximal effect (EC50) of 8.8 nM.

In the case of `O=C1CC[C@@H](C(=O)N2CC[C@@]3(S(=O)(=O)c4ccccc4)c4ccc(OCc5c(F)cccc5Cl)cc4CC[C@@H]23)N1` [Example 138, (5S)-5-[(3aR,9bR)-9b-(benzenesulfonyl)-7-[(2-chloro-6-fluorophenyl)methoxy]-1H,2H,3H,3aH,4H,5H,9bH-benzo[e]indole-3-carbonyl]pyrrolidin-2-one], the midpoint of the response, the EC50, lay at 8.8 nM. Next, `O=C(CN1CCS(=O)(=O)CC1)N1CC[C@@]2(S(=O)(=O)c3ccccc3)c3ccc(OCc4c(F)cccc4Cl)cc3CC[C@@H]12` [Example 139, 4-{2-[(3aR,9bR)-9b-(benzenesulfonyl)-7-[(2-chloro-6-fluorophenyl)methoxy]-1H,2H,3H,3aH,4H,5H,9bH-benzo[e]indol-3-yl]-2-oxoethyl}-1λ^6-thiomorpholine-1,1-dione]: 14 nM. `O=C1CC(C(=O)N2CC[C@@]3(S(=O)(=O)c4ccccc4)c4ccc(OCc5c(F)cccc5Cl)cc4CC[C@@H]23)CN1` (stereo partly drawn) [Example 140, 4-[(3aR,9bR)-9b-(benzenesulfonyl)-7-[(2-chloro-6-fluorophenyl)methoxy]-1H,2H,3H,3aH,4H,5H,9bH-benzo[e]indole-3-carbonyl]pyrrolidin-2-one] registered an EC50 of 134 nM. Next, `NC(=O)N1CCC(C(=O)N2CC[C@@]3(S(=O)(=O)c4ccccc4)c4ccc(OCc5c(F)cccc5Cl)cc4CC[C@@H]23)CC1` [Example 141, 4-[(3aR,9bR)-9b-(benzenesulfonyl)-7-[(2-chloro-6-fluorophenyl)methoxy]-1H,2H,3H,3aH,4H,5H,9bH-benzo[e]indole-3-carbonyl]piperidine-1-carboxamide]: 10 nM; `O=C(O)[C@H]1CC[C@H](C(=O)N2CC[C@@]3(S(=O)(=O)c4ccccc4)c4ccc(OCc5c(F)cccc5Cl)cc4CC[C@@H]23)CC1` [Example 142, (1r,4r)-4-[(3aR,9bR)-9b-(benzenesulfonyl)-7-[(2-chloro-6-fluorophenyl)methoxy]-1H,2H,3H,3aH,4H,5H,9bH-benzo[e]indole-3-carbonyl]cyclohexane-1-carboxylic acid]: 13 nM; `O=C1CC[C@H](C(=O)N2CC[C@@]3(S(=O)(=O)c4ccccc4)c4ccc(OCc5c(F)cccc5Cl)cc4CC[C@@H]23)N1` [Example 143, (5R)-5-[(3aR,9bR)-9b-(benzenesulfonyl)-7-[(2-chloro-6-fluorophenyl)methoxy]-1H,2H,3H,3aH,4H,5H,9bH-benzo[e]indole-3-carbonyl]pyrrolidin-2-one]: 195 nM. Next, `CN1NC(=O)C[C@H]1C(=O)N1CC[C@@]2(S(=O)(=O)c3ccccc3)c3ccc(OCc4c(F)cccc4Cl)cc3CC[C@@H]12` [Example 144, (5S)-5-[(3aR,9bR)-9b-(benzenesulfonyl)-7-[(2-chloro-6-fluorophenyl)methoxy]-1H,2H,3H,3aH,4H,5H,9bH-benzo[e]indole-3-carbonyl]-1-methylpyrazolidin-3-one]: 111 nM; `CS(=O)(=O)NCC(=O)N1CC[C@@]2(S(=O)(=O)c3ccccc3)c3ccc(OCc4c(F)cccc4Cl)cc3CC[C@@H]12` [Example 145, N-{2-[(3aR,9bR)-9b-(benzenesulfonyl)-7-[(2-chloro-6-fluorophenyl)methoxy]-1H,2H,3H,3aH,4H,5H,9bH-benzo[e]indol-3-yl]-2-oxoethyl} methanesulfonamide]: 614 nM. With `[2H]C([2H])([2H])N1C(=O)CC[C@H]1C(=O)N1CC[C@@]2(S(=O)(=O)c3ccccc3)c3ccc(OCc4c(F)cccc4Cl)cc3CC[C@@H]12` [Example 146, (5S)-5-[(3aR,9bR)-9b-(benzenesulfonyl)-7-[(2-chloro-6-fluorophenyl)methoxy]-1H,2H,3H,3aH,4H,5H,9bH-benzo[e]indole-3-carbonyl]-1-(^2H)methylpyrrolidin-2-one] the figure was 6.5 nM. `O=C(O)C12CCC(C(=O)N3CC[C@@]4(S(=O)(=O)c5ccccc5)c5ccc(OCc6c(F)cccc6Cl)cc5CC[C@@H]34)(CC1)CC2` [Example 147, 4-[(3aR,9bR)-9b-(benzenesulfonyl)-7-[(2-chloro-6-fluorophenyl)methoxy]-1H,2H,3H,3aH,4H,5H,9bH-benzo[e]indole-3-carbonyl]bicyclo[2.2.2]octane-1-carboxylic acid] gave a half-maximal effective concentration (EC50) of 104 nM. Next, `NS(=O)(=O)CC(=O)N1CC[C@@]2(S(=O)(=O)c3ccccc3)c3ccc(OCc4c(F)cccc4Cl)cc3CC[C@@H]12` [Example 148, 2-[(3aR,9bR)-9b-(benzenesulfonyl)-7-[(2-chloro-6-fluorophenyl)methoxy]-1H,2H,3H,3aH,4H,5H,9bH-benzo[e]indol-3-yl]-2-oxoethane-1-sulfonamide]: 119 nM; `O=C(C1CCS(=O)(=O)CC1)N1CC[C@@]2(S(=O)(=O)c3ccccc3)c3ccc(OCc4c(F)cc(F)cc4Cl)cc3CC[C@@H]12` [Example 149, 4-[(3aR,9bR)-9b-(benzenesulfonyl)-7-[(2-chloro-4,6-difluorophenyl)methoxy]-1H,2H,3H,3aH,4H,5H,9bH-benzo[e]indole-3-carbonyl]-1λ^6-thiane-1,1-dione]: 7.7 nM; `CN1C(=O)CC[C@H]1C(=O)N1CC[C@@]2(S(=O)(=O)c3ccccc3)c3ccc(OCc4c(F)cccc4Cl)cc3CC[C@@H]12` [Example 150, (5S)-5-[(3aR,9bR)-9b-(benzenesulfonyl)-7-[(2-chloro-6-fluorophenyl)methoxy]-1H,2H,3H,3aH,4H,5H,9bH-benzo[e]indole-3-carbonyl]-1-methylpyrrolidin-2-one]: 6.1 nM. With `O=C(O)[C@H]1CC[C@H](C(=O)N2CC[C@@]3(S(=O)(=O)c4ccc(F)cc4)c4ccc(OCc5cc(F)c(F)cc5Cl)cc4CC[C@@H]23)CC1` [Example 151, (1r,4r)-4-[(3aR,9bR)-7-[(2-chloro-4,5-difluorophenyl)methoxy]-9b-(4-fluorobenzenesulfonyl)-1H,2H,3H,3aH,4H,5H,9bH-benzo[e]indole-3-carbonyl]cyclohexane-1-carboxylic acid] the figure was 16 nM; with `O=C(C1CCS(=O)(=O)CC1)N1CC[C@@]2(S(=O)(=O)c3ccc(F)cc3)c3ccc(OCc4cc(F)c(F)cc4Cl)cc3CC[C@@H]12` [Example 152, 4-[(3aR,9bR)-7-[(2-chloro-4,5-difluorophenyl)methoxy]-9b-(4-fluorobenzenesulfonyl)-1H,2H,3H,3aH,4H,5H,9bH-benzo[e]indole-3-carbonyl]-1λ^6-thiane-1,1-dione], 15 nM. With `O=C(C1CCS(=O)(=O)CC1)N1CC[C@@]2(S(=O)(=O)c3ccc(F)cc3)c3ccc(OCc4cccc(Cl)c4)cc3CC[C@@H]12` [Example 153, 4-[(3aR,9bR)-7-[(3-chlorophenyl)methoxy]-9b-(4-fluorobenzenesulfonyl)-1H,2H,3H,3aH,4H,5H,9bH-benzo[e]indole-3-carbonyl]-1λ^6-thiane-1,1-dione] the figure was 14 nM. As for `NS(=O)(=O)CC(=O)N1CC[C@@]2(S(=O)(=O)c3ccc(F)cc3)c3ccc(OCc4c(F)cccc4Cl)cc3CC[C@@H]12` [Example 154, 2-[(3aR,9bR)-7-[(2-chloro-6-fluorophenyl)methoxy]-9b-(4-fluorobenzenesulfonyl)-1H,2H,3H,3aH,4H,5H,9bH-benzo[e]indol-3-yl]-2-1 oxoethane-1-sulfonamide], the EC50 stood at 58 nM. For the compound `N#CCCN1C(=O)CC[C@H]1C(=O)N1CC[C@@]2(S(=O)(=O)c3ccc(F)cc3)c3ccc(OCc4c(F)cccc4C(F)(F)F)cc3CC[C@@H]12` [Example 155, 3-[(2S)-2-[(3aR,9bR)-7-{[2-fluoro-6-(trifluoromethyl)phenyl]methoxy}-9b-(4-fluorobenzenesulfonyl)-1H,2H,3H,3aH,4H,5H,9bH-benzo[e]indole-3-carbonyl]-5-oxopyrrolidin-1-yl]propanenitrile], the midpoint of the response, the EC50, lay at 4.3 nM. With `N#CCCN1C(=O)CC[C@H]1C(=O)N1CC[C@@]2(S(=O)(=O)c3ccc(F)cc3)c3ccc(OCc4c(Cl)cccc4Cl)cc3CC[C@@H]12` [Example 156, 3-[(2S)-2-[(3aR,9bR)-7-[(2,6-dichlorophenyl)methoxy]-9b-(4-fluorobenzenesulfonyl)-1H,2H,3H,3aH,4H,5H,9bH-benzo[e]indole-3-carbonyl]-5-oxopyrrolidin-1-yl]propanenitrile] the figure was 11 nM. Regarding `N#CCCN1C(=O)CC[C@H]1C(=O)N1CC[C@@]2(S(=O)(=O)c3ccc(F)cc3)c3ccc(OCc4cc(Cl)ccc4Cl)cc3CC[C@@H]12` [Example 157, 3-[(2S)-2-[(3aR,9bR)-7-[(2,5-dichlorophenyl)methoxy]-9b-(4-fluorobenzenesulfonyl)-1H,2H,3H,3aH,4H,5H,9bH-benzo[e]indole-3-carbonyl]-5-oxopyrrolidin-l-yl]propanenitrile], the concentration for a half-maximal effect (EC50) came to 4.3 nM.
